Data set [1] concerns the target MLL1 core complex (MLL1, WDR5, RbBP5, and ASH2L) (Homo sapiens, UniProt P61964). The following applies: cis vs trans.
Method: To test this, we studied the inhibition of MLL1 H3K4 methyltransferase activity through the previously reported in vitro HMT assay using the MLL1 core complex (i.e. MLL1, WDR5, RbBP5, and ASH2L) and the H3 20mer peptide as substrate.[17]
In Vitro Histone Methyltransferase (HMT) Assay
The HMT assay was performed, as previously described[25] with slight modifications, in 50 mM Tris pH 8.0, 50 mM NaCl, 1.0 mM DTT, 5 mM MgCl2 at room temperature. Each reaction contained 1.5 μM of the cofactor 3H-S-adenosylmethionine (Perkin-Elmer). H31-21 peptide was used as the substrate at 250 μM. […] Reactions were initiated by addition of the H3/SAM and allowed to proceed for 60 min before preparing scintillation counting. To count samples, reactions were spotted on separate squares of P81 filter paper (Millipore) and precipitated by submerging in freshly prepared 50 mM sodium bicarbonate buffer pH = 9.0. After washing and drying, the samples were vortexed in Ultima Gold scintillation fluid and counted.
For data set [2], the target named is T1, WDR5Δ23 (Homo sapiens, UniProt P61964).
T1 construct: His6-SUMO (N, cleaved yes); made in house; host or cells: E. coli DH5α (so in the source)
Kind of data set: Fluorescence polarization (FP)-based competitive binding assay.

Data set [3] is described as follows: Stability against GSH reduction. Format: physicochemical. Conditions: 10 mM GSH, four days, kept in the dark. The method, then:
(§1) We then examined the potential of 16 and 17 to control externally the cellular response in proliferation assays. Thus, both isomers of both peptidomimetics were incubated at different concentrations for four days. After two days of incubation, the cells containing the cis isomers were irradiated at 430 nm for 90 seconds in a single isomerization cycle with a custom-made 6-well plate LED array.
H-bond cut off < 3.5 Å, Van der Waals: […]. N 3.81
Evaluation of Stability against GSH-reduction of Peptides
To test the stability of the AMPB-containing peptides 16 and 17 against reduction by glutathione (GSH), the peptides were incubated with GSH for 4 days.
Figure S72. Left: HPLC chromatograms of peptides, incubated with 10 mM GSH, recorded after different time periods. Left: peptide 16. Right: peptide 17. […]
peptides 16 and 17 (10 μM) in 0.1 M phosphate buffer pH = 7 were mixed giving final concentrations of 10 mM of GSH and 9.6 μM of the peptides, respectively. After different time periods, HPLC chromatograms of these mixtures were recorded (gradient: 5-40% B) (Figure […]
In Vitro Methyl Transferase Assay with MLL1 Core Complex
Full length constructs of both, RbBP5 (residues 1−538) and Ash2L (residues 1−635), were used for expression. […] MLL1, WDR5, RbBP5, and ASH2L were expressed as His-SUMO fusions from the pET28A-SUMO vector in BL21 DE3 pLyss codon (+) cells at 16 °C overnight. […]

Data set [4] can be described thus: Proliferation / cell viability assay (CellTiter-Glo). Format: cell-based, mouse. Conditions: trans isomer, 2.5 μM concentration, 96 h; read-out: viable cells. The method, then: We initially studied the cellular uptake and cell viability of our compounds in murine MLL-AF9-transduced mouse bone marrow cells (Fig. 5). In line with our expectations, peptidomimetics 16 and 17 that contained peptide 7 within their sequence are the ones that inhibited the cell proliferation of leukemia. […] Thus, while in the case of the trans isomer of peptidomimetic 16 we already determined less than 50% of viable cells at 2.5 μM concentration, with the WIN-containing conjugates 20 and 21 we measured 87% and 96% of viable cells at 50 μM concentration, respectively.
as §1
MLL-AF9-transduced mouse bone marrow was cultured in IMDM medium + 15% FBS and supplemented with 10 ng/mL interleukin-3 (IL-3) at each passage, every other day.
DMSO) isomers, of peptides 7, 16, 17, as well as the peptides 18 and 19 were diluted from stock to culture media containing a 0.1% DMSO final concentration. For viability assays, […]
72 h and DMSO as control . For the cis-trans group, after 48 h treatment with cis peptides, the plate was irradiated at […] for 90 sec and continued to culture for 2 days in the dark.
Viability was determined using the CellTiter-Glo Kit (Promega) according to the a a ’ d . was monitored on a Molecular Devices plate reader.

The test system of data set [5] is Deptor gene (MLL1 target gene). Kind of data set: Real-time PCR of Deptor mRNA expression. Format: cell-based, mouse. The following applies: 10 μM, 96 h, RT-PCR, standardized to GAPDH, vs Mock. The source says:
Finally, we tested whether our probe acts as an optoepi-genetic inhibitor and controls expression of MLL1 target genes. We used the Deptor gene as a reporter, given its importance in hematopoiesis and leukemogenesis,[51],[52] as well as significant regulation by MLL1 inhibition.[53] To this end, we examined Deptor expression by real-time PCR (RT-PCR). […] Of note, a small but significant (p = 0.008) difference between cis and trans isomers was observed. […] There is no statistically significant difference between cis isomer of 17 and the control.
Fig. 8 Relative Deptor mRNA expression levels in murine MLL-AF9-transduced mouse bone marrow cells after 96 h of incubation at 10 μM; they were analysed by RT-PCR and standardized to the endogenous GAPDH control. The significance is corroborated by the p-value.
Real Time Quantitative PCR Analysis of Deptor Gene
Murine MLL1-AF9 transformed bone marrow cells were obtained by transducing normal murine bone marrow cells with MLL1-AF9 oncogene according to the procedures described […]
100 mM stock) isomers, of peptides 7, 16, 17, as well as the peptides 18 and 19 were […]
The transformed cells were treated with different concentrations of the respective peptide (1.0, 5.0, 10 μM) and Mock (0.1% DMSO), giving a final concentration of 0.1% DMSO in all the samples. […] Relative quantification of each gene transcript was carried out as described previously.[28] […]

Data set [6] deals with T1, WDR5Δ23. Details: method as in PMID 20575550. Conditions: interaction with WDR5; cited from earlier work.
The mark [7] stands for this setting: non-irradiated peptide (trans isomer), 72 nM WDR5Δ23, 20 nM tracer 22, read-out: IC50, non-irradiated (trans).
Setting [8] is: non-irradiated peptide (trans isomer), 72 nM WDR5Δ23, 20 nM tracer 22, read-out: Ki, non-irradiation (trans).

Where two headings read alike, the source gives them in different places. Starred links: 1 amine or outer side, 2 acyl side, 3 side chain; linkers in the order of their positions; H or OH if unused. Non-standard residues stand in square brackets, D forms with d. Residues, ends and D or L forms follow the SMILES beside them. AMPB = O=C(c1ccc(N=Nc2ccc(CN[*:1])cc2)cc1)[*:2]; Ahx = NCCCCCC(=O)O; βAla = NCCC(=O)O

For orientation: IC50 means the concentration at which inhibition is half-maximal. What is called Ki is a dissociation constant, usually derived from enzyme kinetics or from competition with a known ligand. Consider `CC(C)C[C@H](NC(=O)[C@H](Cc1c[nH]cn1)NC(=O)[C@@H](NC(=O)c1ccc(N=Nc2ccc(CNC(=O)[C@H](C)NC(=O)[C@H](CCCNC(=N)N)NC(=O)[C@H](C)NC(=O)[C@@H](N)CO)cc2)cc1)C(C)C)C(=O)N[C@@H](CCCNC(=N)N)C(=O)N[C@@H](CCCCN)C(=O)N[C@@H](CO)C(N)=O` [peptide 7, H2N-SARAXVHLRKS-CONH2] (H-SARA[AMPB]VHLRKS-NH2), for which the “difference in IC50 between both isomers” value in data set [1] was “more than 15 fold”. The IC50 at WDR5Δ23 [2] (IC50 cis (with 5 nM tracer), cis isomer (366 nm), 20 nM WDR5Δ23, 5 nM tracer 22) worked out at 147 ± 14 nM; on WDR5Δ23 [2] (IC50 trans (with 5 nM tracer), trans isomer, 20 nM WDR5Δ23, 5 nM tracer 22) it was 57 ± 11 nM; on WDR5Δ23 [2] (setting [7]), 146 ± 21 nM. Further, the Ki at WDR5Δ23 [2] (Ki cis (with 5 nM tracer), cis isomer (366 nm), 20 nM WDR5Δ23, 5 nM tracer 22) stood at 6.37 ± 1 nM; on WDR5Δ23 [2] (Ki trans (with 5 nM tracer), trans isomer, 20 nM WDR5Δ23, 5 nM tracer 22), 2.03 ± 0.42 nM; at WDR5Δ23 [2] (setting [8]) it was 1.25 ± 0.36 nM.

As for `CC(C)C[C@H](NC(=O)[C@H](Cc1c[nH]cn1)NC(=O)[C@@H](NC(=O)c1ccc(N=Nc2ccc(CNC(=O)[C@H](C)NC(=O)[C@H](CCCNC(=N)N)NC(=O)[C@H](C)NC(=O)[C@@H](N)CO)cc2)cc1)C(C)C)C(=O)N[C@@H](CCCNC(=N)N)C(=O)N[C@@H](CCCCN)C(=O)N[C@@H](CO)C(=O)N[C@@H](CCCNC(=N)N)C(=O)N[C@@H](CCCNC(=N)N)C(=O)N[C@@H](CCCNC(=N)N)C(=O)N[C@@H](CCCNC(=N)N)C(=O)N[C@@H](CCCNC(=N)N)C(=O)N[C@@H](CCCNC(=N)N)C(=O)N[C@@H](CCCNC(=N)N)C(=O)N[C@@H](CCCNC(=N)N)C(N)=O` [peptide 16, H2N-SARA-AMPB-VHLRKS-R8-NH2] (H-SARA[AMPB]VHLRKSRRRRRRRR-NH2), on WDR5Δ23 [2] (setting [7]), the IC50 was 135 ± 5 nM. The Ki at WDR5Δ23 [2] (setting [8]) amounted to 1.18 ± 0.095 nM. Also, in data set [3], the “stability of cis isomer against glutathione” value is on record as “suitable cis/trans ratio”. Also, in data set [4], the viability at 2.5 µM is less than 50%.

Consider `CC(C)C[C@H](NC(=O)[C@H](Cc1c[nH]cn1)NC(=O)[C@@H](NC(=O)c1ccc(N=Nc2ccc(CNC(=O)[C@H](C)NC(=O)[C@H](CCCNC(=N)N)NC(=O)[C@H](C)NC(=O)[C@@H](N)CO)cc2)cc1)C(C)C)C(=O)N[C@@H](CCCNC(=N)N)C(=O)N[C@@H](CCCCN)C(=O)N[C@@H](CO)C(=O)N[C@@H](CCCNC(=N)N)C(=O)NCCCCCC(=O)N[C@@H](CCCNC(=N)N)C(=O)N[C@@H](CCCNC(=N)N)C(=O)NCCCCCC(=O)N[C@@H](CCCNC(=N)N)C(=O)N[C@@H](CCCNC(=N)N)C(=O)NCCCCCC(=O)N[C@@H](CCCNC(=N)N)C(=O)N[C@@H](CCCNC(=N)N)C(=O)NCCCCCC(=O)N[C@@H](CCCNC(=N)N)C(=O)NCCCCCC(=O)NCCC(N)=O` [peptide 17, H2N-SARA-AMPB-VHLRKS-(RahxR)4RAhxB-NH2] (H-SARA[AMPB]VHLRKSR[Ahx]RR[Ahx]RR[Ahx]RR[Ahx]R[Ahx][βAla]-NH2), for which, at WDR5Δ23 [2] (setting [7]), the IC50 worked out at 120 ± 25 nM. For the same molecule, on WDR5Δ23 [2] (setting [8]), the inhibitory constant (Ki) came to 0.925 ± 0.39 nM. In addition, the “stability of cis isomer against glutathione” value in data set [3] was “suitable cis/trans ratio”.

For the molecule `N=C(N)NCCC[C@H](NC(=O)[C@H](CCCNC(=N)N)NC(=O)[C@H](CCCNC(=N)N)NC(=O)[C@H](CCCNC(=N)N)NC(=O)[C@H](CCCNC(=N)N)NC(=O)[C@H](CCCNC(=N)N)NC(=O)[C@H](CCCNC(=N)N)NC(=O)[C@@H](N)CCCNC(=N)N)C(N)=O` [peptide 18], the “Deptor mRNA expression (in words)” value in data set [5] was “not affected”.

Regarding `N=C(N)NCCC[C@H](NC(=O)CCCCCNC(=O)[C@H](CCCNC(=N)N)NC(=O)[C@H](CCCNC(=N)N)NC(=O)CCCCCNC(=O)[C@H](CCCNC(=N)N)NC(=O)[C@H](CCCNC(=N)N)NC(=O)CCCCCNC(=O)[C@H](CCCNC(=N)N)NC(=O)[C@H](CCCNC(=N)N)NC(=O)CCCCCNC(=O)[C@@H](N)CCCNC(=N)N)C(=O)NCCCCCC(=O)NCCC(N)=O` [peptide 19] (H-R[Ahx]RR[Ahx]RR[Ahx]RR[Ahx]R[Ahx][βAla]-NH2), the “Deptor mRNA expression (in words)” value in data set [5] is reported as “not affected”.

Regarding Ac-ARAEVHLRKS-NH2 [peptide 2], the inhibition constant (Ki) in the data set with WDR5Δ23 [6] was 3 nM.
